This passage reports Activity, Vd and Cmax results from ChEMBL document CHEMBL6134851, “Comparative Study on Covalent and Noncovalent Endogenous Albumin-Binding β-Glucuronidase-Activated SN38 Prodrugs for Antitumor Efficacy” (J Med Chem, 2025).

The nature of data set [1]: Toxicity in female BALB/cA nude mouse assessed as mortality at 25 mg/kg, iv administered twice per week measured after 107 days. The format is organism-based. The following applies: in vivo, 2568 h, time 107 day.
The nature of data set [2]: Volume of distribution in female BALB/c mouse at 25 mg/kg measured up to 120 hrs by HPLC analysis. The format is ADME, organism-based. The conditions noted are these: in vivo.
Data set [3] can be described thus: Toxicity in female BALB/cA nude mouse assessed as necrosis in tumor tissue at 25 mg/kg, iv measured after 24 hrs by H and E staining based analysis. The following applies: in vivo. The format is organism-based.
The test system of another data set is HCT-116. Put plainly: Antitumor activity against human HCT-116 cells xenografted in female BALB/cA nude mouse model assessed as relative tumor proliferation rate at 38 mg/kg, iv administered twice per week measured after 24 days relative to control. The format is functional. The following applies: time 24 day. (In general: A xenograft is tissue or cells of one species grown in another, often human tumour cells in immunodeficient mice.)

A short description of data set [4]: Toxicity in female BALB/cA nude mouse assessed as fibrotic changes in liver at 38 mg/kg, iv administered once a week for 35 days by H and E staining based analysis. The format is organism-based. The conditions noted are these: in vivo, 840 h, time 35 day.
Data set [5] is described as follows: Cmax in female BALB/c mouse at 38 mg/kg measured up to 168 hrs by HPLC analysis. The format is ADME, organism-based. The following applies: in vivo.
A short description of data set [6]: Volume of distribution in female BALB/c mouse at 38 mg/kg measured up to 168 hrs by HPLC analysis. The class given is ADME, organism-based. The conditions noted are these: in vivo.
Data set [7] is described as follows: Toxicity in female BALB/cA nude mouse assessed as effect on body weight loss at 38 mg/kg, iv administered twice per week measured after 107 days. The following applies: in vivo, 2568 h, time 107 day. The format is organism-based.
Data set [8] is described as follows: Toxicity in female BALB/cA nude mouse assessed as damage in lung at 38 mg/kg, iv measured after 24 hrs by H and E staining based analysis. The format is organism-based. The conditions noted are these: in vivo.

For `CCc1c2c(nc3ccc(OCc4ccc(O[C@@H]5O[C@H](C(=O)O)[C@@H](O)[C@H](O)[C@H]5O)c(NC(=O)CCNC(=O)CCCCCN5C(=O)C=CC5=O)c4)cc13)-c1cc3c(c(=O)n1C2)COC(=O)[C@]3(O)CC`, the Activity result in data set [1] was “Non-toxic”; in data set [3], “Toxic”. Besides, the Vd in data set [2] amounted to 0.61 L/kg.

For the molecule `CCc1c2c(nc3ccc(OCc4ccc(O[C@@H]5O[C@H](C(=O)O)[C@@H](O)[C@H](O)[C@H]5O)c(NC(=O)CCNC(=O)COCCOCCNC(=O)COCCOCCNC(=O)CC[C@H](NC(=O)CCCCCCCCCCCCCCCCC(=O)O)C(=O)O)c4)cc13)-c1cc3c(c(=O)n1C2)COC(=O)[C@]3(O)CC`, the Activity with HCT-116 was 10.59%; in data set [4] it was “Non-toxic”; in data set [7], “Toxic”; in data set [8] it was “Toxic”. This molecule also gave a Cmax in [5] of 112 µg/mL. Besides, the distribution volume (Vd) in data set [6] came out at 0.24 L/kg.

One may read the Vd as a proportionality between amount in the body and measured concentration, not a real space. Read a high Vd as extensive tissue distribution. By Cmax is commonly meant the highest concentration seen after dosing.
